# Measured values published in patent US7645793B2, “Injectable pharmaceutical formulations” (Shionogi & Co., Ltd., priority 2001, dated 2010).
# Tests used:
# Format in all cases: physicochemical
# [1] = Determination of surface tension by Wilhelmy method
# Experimental: A compound to be determined that has been weighed is dissolved or suspended in a defined amount of a distilled water. As such, samples of aqueous solutions to be tested containing the compound at various concentrations are prepared, and each of the solutions is adjusted to be 50 ml aliquots.
# Surface tension-measuring device (Kruess Inc., Type K12) and the personal computer for control and analysis are started, and a software for determining surface tension (Kruess Inc., K122) is launched. The determination site of the device is subjected to the circulation of the water from a thermostatic chamber to keep the temperature constant at 25° C. […]
# Forty ml of a distilled water is poured into the vessel that have been washed, and the vessel is placed into the surface tension-measuring device. […] In this condition, surface tensions are determined. […] When the value of surface tension as determined one minute later is almost constant, then the value is recorded and the determination is stopped.
# After the blank determination, 40 ml of a sample of aqueous solutions is poured into the vessel that have been washed, and the vessel is placed into the surface tension-measuring device. […] In this condition, surface tensions are determined. […] When the value of surface tension as determined one minute later is almost constant, then the value is recorded and the determination is stopped. […]
# [2] = Storage stability of lyophilized formulation, HPLC of content and decomposed materials
# Experimental: After the formulation as prepared according to Example 1 was stored at 50° C. for 2 months, the amounts of decomposed materials produced by hydrolysis were determined and compared. Typical decomposed materials are:
# The relationship of the contents of compound 1, the amounts of the decomposed materials, and the added amounts of D-mannitol comprised in between the formulation before the storage and that after the storage at 50° C. for 2 months, is shown in Table 2. The determination was conducted using high performance liquid chromatography (HPLC). The determination conditions of HPLC are as shown below: • Device: Waters 600E,484,712 wisp,74 1,FD20A • Column: J'sphere ODS-L80, S-4μm, 80A 150×4.6 mmφ • Moving phase: water/acetonitrile/acetic acid=100/100/1 • Flow rate: 1.0 ml/min • Injected volume: • 20 μL (at the time for determination of impure materials) • 10 μL (at the time for determination of compound 1) • Detection wavelength • 275 nm • Detection sensibility (AUFS): • 0.64 (at the time for determination of impure materials) • 0.20 (at the time for determination of compound 1) • Solvent for dilution of samples: • water/acetonitrile/acetic acid=100/100/1 • Concentration of samples • 1 mg/ml (at the time for determination of impure materials) • 60.0 μg/ml (at the time for determination of compound 1)
# [3] = Ross-Miles Foaming Test (foaming vs pH); settings: 0.1% w/w in water for injection, 25° C., ISO 696-1975
# Experimental: Compound 1 was dissolved in a water for injection (0.1% w/w), and the solution was quantitatively determined for foaming by Ross-Miles Foaming Test. Ross-Miles Foaming Test was conducted according to the method as defined in International Standard ISO 696-1975 except that the determination temperature was set 25° C.
# [4] = D-mannitol 0% of the weight of compound 1
# [5] = D-mannitol 25% of the weight of compound 1
# [6] = D-mannitol 50% of the weight of compound 1
# [7] = D-mannitol 100% of the weight of compound 1
smiles,measurement,setting,value
CC1(C)CC[C@]2(C(=O)[O-])CC[C@]3(COC(=O)/C=C/c4cc(O)ccc4NC(=O)/C=C/C(=O)[O-])C(=CC[C@@H]4[C@@]5(C)CCC(=O)C(C)(C)[C@@H]5CC[C@]43C)[C@@H]2C1.[Na+].[Na+] [compound 1],surface tension,"[1]; 37.6 mM solution of compound 1 in water, 25° C., Wilhelmy method",53.9±0.2 mN/m
same,"decrease in surface tension, pH 9.5 vs pH 7 to 7.5","[1]; aqueous solutions at various concentrations, pH 9.5 adjusted with sodium hydroxide, FIG. 1",the decrease in the surface tension is inhibited at pH 9.5 more than that at pH7 to 7.5
same,Content of compound 1 (after storage at 50° C. for 2 months),[2]; [4],97.1 ± 0.1%
same,"amount of Other related compounds, After storage at 50° C. for 2 months",[2]; [4],0.66 ± 0.14%
same,"amount of Other related compounds, Before storage",[2]; [4],0.32 ± 0.02%
same,"amount of decomposed material compound A, After storage at 50° C. for 2 months",[2]; [4],1.71 ± 0.08%
same,"amount of decomposed material compound A, Before storage",[2]; [4],0.26 ± 0.02%
same,Content of compound 1 (after storage at 50° C. for 2 months),[2]; [5],97.9 ± 0.4%
same,"amount of Other related compounds, After storage at 50° C. for 2 months",[2]; [5],0.87 ± 0.02%
same,"amount of Other related compounds, Before storage",[2]; [5],0.33 ± 0.03%
same,"amount of decomposed material compound A, After storage at 50° C. for 2 months",[2]; [5],0.44 ± 0.01%
same,"amount of decomposed material compound A, Before storage",[2]; [5],0.13 ± 0.01%
same,Content of compound 1 (after storage at 50° C. for 2 months),[2]; [6],98.0 ± 0.1%
same,"amount of Other related compounds, After storage at 50° C. for 2 months",[2]; [6],0.89 ± 0.05%
same,"amount of Other related compounds, Before storage",[2]; [6],0.32 ± 0.02%
same,"amount of decomposed material compound A, After storage at 50° C. for 2 months",[2]; [6],0.24 ± 0.01%
same,"amount of decomposed material compound A, Before storage",[2]; [6],0.11 ± 0.01%
same,Content of compound 1 (after storage at 50° C. for 2 months),[2]; [7],98.3 ± 0.1%
same,"amount of Other related compounds, After storage at 50° C. for 2 months",[2]; [7],1.24 ± 0.05%
same,"amount of Other related compounds, Before storage",[2]; [7],0.31 ± 0.01%
same,"amount of decomposed material compound A, After storage at 50° C. for 2 months",[2]; [7],0.23 ± 0.02%
same,"amount of decomposed material compound A, Before storage",[2]; [7],0.11 ± 0.01%
same,foaming by Ross-Miles Foaming Test in relation to pH,[3],the foaming was inhibited depending on the increase in pH
